Source: patent US20220274947A1, “NOVEL HETEROARYL-TRIAZOLE COMPOUNDS AS PESTICIDES” (Bayer Aktiengesellschaft, priority 2019, published 2022)

Columns and labels:
Format in all cases: in vivo
[1] = system: Rhipicephalus microplus; assay: Rhipicephalus (Boophilus) microplus injection test (BOOPMI Inj); details: 168 h, injection into adult engorged female ticks, egg deposition after 7 days, read-out: activity (efficacy: 100% means all eggs are infertile); for pest or weed control at 0.004 mg: application rate 4 μg/tick; for pest or weed control at 0.02 mg: application rate 20 μg/tick
In short: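 Compound in DMSO, 1 μL, injected abdominally into five adult engorged females, which were then held in a climate chamber. Read-out is egg fertility, scored from deposition at 7 days, with unclear eggs followed to hatching (~42 days); 0% means all eggs fertile, 100% all infertile.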

[2] = system: Rhipicephalus microplus; assay: Rhipicephalus (Boophilus) microplus in-vitro contact test, larval cattle tick, strain Parkhurst (BOOPMI Cont); details: application rate 5 μg/cm^2 (=500 g/ha), tick larvae, after 48 hours, read-out: activity (efficacy: 100% means all larvae are dead or moribund)
In short: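 After 48 h at 27° C. and 85% humidity, percent dead or moribund larvae was scored from negative geotactic behaviour. Larvae (20-50, Parkhurst strain, synthetic pyrethroid-resistant) were exposed in tubes coated with compound from acetone, 900 ppm corresponding to 5 μg/cm^2.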

[3] = system: Ctenocephalides felis; assay: Ctenocephalides felis in-vitro contact test, adult cat flea (CTECFE Cont); details: application rate 5 μg/cm^2 (=500 g/ha), adult cat fleas, after 48 hours, read-out: activity (efficacy: 100% means all fleas are dead or moribund)
Procedure: Ctenocephalides felis—In-Vitro Contact Tests Adult Cat Flea (CTECFE Cont)
9 mg compound is solved in 1 mL acetone and diluted with acetone to the desired concentration. 250 μL of the test solution is filled in 25 mL glass test tubes and homogeneously distributed on the inner walls by rotation and tilting on a shaking device (2 h at 30 rpm). With a compound concentration of 900 ppm, an inner surface of 44.7 cm^2 and a homogeneous distribution, a dose of 5 μg/cm^2 is achieved.
After the solvent has evaporated, each test tube is filled with 5-10 adult cat fleas (Ctenocephalides felis), closed with a perforated lid and incubated in a lying position at room temperature and relative humidity. After 48 hours efficacy is determined. The fleas are patted on the ground of the tubes and are incubated on a heating plate at 45-50° C. for at most 5 minutes. Immotile or uncoordinated moving fleas, which are not able to escape the heat by climbing upwards, are marked as dead or moribund.
An efficacy of 100% means all fleas are dead or moribund; 0% means no fleas are dead or moribund.

[4] = system: Ctenocephalides felis; assay: Ctenocephalides felis oral test (CTECFE Oral); details: 48 h, read-out: activity (mortality)
In short: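 Percent mortality was recorded 2 days after roughly 20 adult Ctenocephalides felis fed on treated cattle blood. The blood was warmed to 37 °C beneath a parafilm membrane, with the fleas kept at room temperature. Compound was dissolved in DMSO and diluted into the blood to test concentration.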

[5] = system: Rhipicephalus sanguineus; assay: Rhipicephalus sanguineus in-vitro contact test, adult brown dog ticks (RHIPSA Cont); details: 48 h, after 48 hours, read-out: activity (efficacy: 100% means all ticks are dead or moribund); for pest or weed control at 1 µg/cm2, 100 g/ha: application rate 1 μg/cm^2 (=100 g/ha); for pest or weed control at 5 µg/cm2, 500 g/ha: application rate 5 μg/cm^2 (=500 g/ha)
In short: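 Mortality of adult R. sanguineus was judged 48 h after contact with acetone-applied residues on glass tube walls. Ticks that stayed immotile or moved without coordination when heated to 45–50 °C (max 5 min) counted as dead or moribund.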

[6] = system: Diabrotica balteata; assay: Diabrotica balteata spray test; details: 168 h, wheat seeds, larvae, after 7 days, read-out: activity (efficacy: 100% means all seedlings have grown up like in the untreated, uninfected control); for pest or weed control at 32 µg/disc, 100 g/ha: application rate 100 g/ha (=32 μg/well); for pest or weed control at 160 µg/disc, 500 g/ha: application rate 500 g/ha (=160 μg/well)
In short: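 Efficacy (%) was scored 7 days after spraying, with 100% meaning growth like the untreated, uninfected control and 0% meaning no seedling grew. Spray solutions of compound in acetone/DMF with emulsifier-containing water went onto 1-day-germinated wheat seeds, and each unit was then infested with 10-20 banded cucumber beetle larvae.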

[7] = system: Myzus persicae; assay: Myzus persicae oral test; details: 120 h, read-out: activity (mortality)
In short: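 Percent mortality was recorded at day 5, where 0% means no aphids killed. Compound prepared from an acetone concentrate diluted in water and combined with IPL41 medium containing sugar was offered to mixed-stage green peach aphids, which sucked it through a parafilm seal.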

[8] = system: Spodoptera frugiperda; assay: Spodoptera frugiperda spray test; details: in Zea mays, 168 h, read-out: activity (mortality)
In short: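 Percent kill of fall armyworm caterpillars was assessed 7 days after infesting dried, treated maize leaf sections. Treatment was a spray of compound in acetone/dimethylformamide, diluted with water containing emulsifier at 1000 ppm.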

[9] = system: Nezara viridula; assay: Nezara viridula spray test; details: in Hordeum vulgare, 96 h, barley plants, larvae, after 4 days; for mortality at 500 g/ha: application rate 500 g/ha; for mortality at 100 g/ha: application rate 100 g/ha
Procedure: Nezara viridula—Spray Test Solvent: 78.0 parts by weight of acetone • • 1.5 parts by weight of dimethylformamide Emulsifier: alkylarylpolyglycol ether
To produce a suitable preparation of active compound, 1 part by weight of active compound is mixed with the stated amount of solvent, and the concentrate is diluted with water, containing an emulsifier concentration of 1000 ppm, to the desired concentration. Further test concentrations are prepared by dilution with emulsifier containing water.
Barley plants (Hordeum vulgare) infested with larvae of the southern green stink bug (Nezara viridula) are sprayed with a test solution containing the desired concentration of the active ingredient.
After 4 days mortality in % is determined. 100% means all the stink bugs have been killed; 0% means none of the stink bugs have been killed.

[10] = system: Musca domestica strain WHO—N; assay: Musca domestica test (MUSCDO surface treatment & contact assay); details: surface concentration 20 mg/m^2, glazed tile, exposure 30 minutes, 24 hours after contact, read-out: efficacy (mortality)
In short: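 Compound dissolved in acetone (2 mg/ml) with 2000 ppm rapeseed oil methyl ester and pipetted onto glazed tile; after acetone evaporation, adult flies exposed to dried surface for 30 minutes. Mortality (%) scored 24 hours after contact.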

[11] = system: Aedes aegypti strain MONHEIM; assay: Aedes aegypti test (AEDSAE surface treatment & contact assay); details: exposure 30 minutes, 24 hours after contact, read-out: efficacy (mortality); for mortality at 4 mg/m2: surface concentration 4 mg/m^2, glazed tile
In short: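 Compound dissolved in acetone (2 mg/ml) with 2000 ppm rapeseed oil methyl ester, pipetted onto glazed tile and dried. Adult mosquitoes exposed on the surface for 30 min; percent mortality scored 24 h after contact.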

| Structure (SMILES) | pest or weed control at 0.004 mg [1] [%] | pest or weed control at 0.02 mg [1] [%] | pest or weed control at 5 µg/cm2 [2] [%] | pest or weed control at 5 µg/cm2 [3] [%] | mortality at 100 ppm [4] [%] | pest or weed control at 1 µg/cm2, 100 g/ha [5] [%] | pest or weed control at 5 µg/cm2, 500 g/ha [5] [%] | pest or weed control at 32 µg/disc, 100 g/ha [6] [%] | mortality at 4 ppm [7] [%] | mortality at 100 g/ha [8] [%] | pest or weed control at 160 µg/disc, 500 g/ha [6] [%] | mortality at 500 g/ha [9] [%] | mortality at 500 g/ha [8] [%] | mortality at 20 mg/m2 [10] [%] | mortality at 100 g/ha [9] [%] | mortality at 4 mg/m2 [11] [%] | mortality at 20 mg/m2 ([11]; surface concentration 20 mg/m^2, glazed tile) [%] | mortality at 0.8 ppm [7] [%] |
| --- | --- | --- | --- | --- | --- | --- | --- | --- | --- | --- | --- | --- | --- | --- | --- | --- | --- | --- |
| Cc1nc([C@H](C)NC(=O)c2cc(Cl)cc(C(F)(F)C(F)(F)F)c2)n(-c2ccc(C#N)cn2)n1 [II-75] | 100 | 100 | 100 | 90 | 100 | 100 | 100 | 100 | 100 | 100 | – | – | – | – | – | – | – | – |
| C[C@H](NC(=O)c1cc(C(F)(F)F)cc(C(F)(F)F)c1)c1nc(C2CC2)nn1-c1ccc(C#N)cn1 [I-4] | 100 | 100 | 100 | – | – | – | – | 100 | – | 100 | 100 | 90 | 100 | 80 to 100 | – | – | – | – |
| C[C@H](NC(=O)c1cc(Cl)cc(C(F)(F)F)c1)c1nc(C(C)(C)C)nn1-c1ccc(C#N)cn1 [I-38] | 100 | 100 | 100 | – | – | 100 | 80 | 100 | – | 83 | – | – | – | 80 to 100 | 100 | – | – | – |
| COc1nc([C@H](C)NC(=O)c2cc(Cl)cc(Cl)c2)n(-c2ccc(C#N)cn2)n1 [I-15] | 100 | 100 | 100 | 80 | 100 | – | 80 | 100 | 100 | 100 | 100 | – | 100 | – | – | 80 to 100 | – | – |
| C[C@H](NC(=O)c1cc(Cl)cc(SC(F)F)c1)c1nc(C2CC2)nn1-c1ccc(C#N)cn1 [I-46] | 100 | – | 100 | – | 100 | – | – | 100 | – | 100 | – | – | – | 80 to 100 | 100 | – | – | – |
| CC(C)N(C(=O)c1ccc(-n2ncnc2[C@H](C)NC(=O)c2cc(Cl)cc(C(F)(F)F)c2)nc1)C1CC1 [II-29] | 100 | 100 | 100 | 100 | 100 | 100 | 100 | 100 | – | 83 | 100 | – | 100 | – | – | 80 to 100 | 80 to 100 | – |
| CC(C)c1nc([C@H](C)NC(=O)c2cc(Br)cc(Br)c2)n(-c2ccc(C#N)cn2)n1 [I-24] | 100 | 100 | 100 | 80 | 100 | 100 | 100 | 100 | – | 100 | – | – | – | – | – | – | – | – |
| C[C@H](NC(=O)c1cc(Br)cc(I)c1)c1ncnn1-c1ccc(C#N)cn1 [II-112] | 100 | – | 100 | 80 | 100 | 100 | 100 | 100 | – | 100 | – | – | – | – | – | – | – | – |
| C[C@H](NC(=O)c1cc(Cl)cc(C(F)(F)F)c1)c1nc(C2CC2)nn1-c1ccc(C#N)cn1 [I-6, 3-chloro-N-{(1S)-1-[1-(5-cyanopyridin-2-yl)-3-cyclopropyl-1H-1,2,4-triazol-5-yl]ethyl}-5-(trifluoromethyl)benzamide] | 100 | 100 | 100 | – | – | – | – | 100 | – | 100 | 100 | 100 | 100 | 80 to 100 | – | – | – | – |
| C[C@H](NC(=O)c1cc(Br)cc(OC(F)(F)F)c1)c1ncnn1-c1cc(C#N)ccn1 [II-107] | 100 | – | 100 | 100 | 100 | 100 | 100 | 100 | 100 | 100 | – | – | – | – | – | – | – | – |
| C[C@H](NC(=O)c1cc(Cl)cc(C(F)(F)F)c1)c1ncnn1-c1ccc(C(=O)N(C)CC(F)(F)F)cn1 [II-69] | 100 | 100 | 100 | 90 | 100 | 100 | 100 | 80 | 100 | 83 | – | – | 100 | – | – | – | – | – |
| C[C@H](NC(=O)c1cc(C(F)(F)F)cc(C(F)(F)F)c1)c1ncnn1-c1cc(C(=O)N(C)C)ccn1 [II-86] | – | – | 100 | 100 | 100 | 100 | 80 | 100 | 100 | 100 | – | – | – | – | – | – | – | 100 |
